Among the data in ChEMBL document CHEMBL1148173, “Three New Onnamide Congeners from the Okinawan Marine Sponge Theonella Sp” (J Nat Prod, 1993) are IC50 values, retold here.

In brackets after ≈: the same amount, converted by molar mass.

One assay concerns L1210. Put plainly: Cytotoxicity against mouse L1210 cells. The assay is classed as functional, cell-based.
In another assay the test system is KB. Briefly: Cytotoxicity against human KB cells. It is filed as functional, cell-based.

Regarding `C=C1C[C@](OC)([C@H](O)C(=O)N[C@H]2OCO[C@H]3[C@@H]2O[C@H](C[C@H](O)CCC/C=C/C=C\C=C\C(=O)N[C@@H](CCCNC(=N)N)C(=O)O)C(C)(C)[C@@H]3OC)O[C@H](C)[C@@H]1C` [4Z-ONNAMIDE A], the IC50 – broadly, the point on the concentration scale where inhibition reaches its midpoint – is 1.5 ng/mL (≈ 1.89 nM) in the assay with L1210 and 2.9 ng/mL (≈ 3.65 nM) in the assay on KB.
Taken in the same sequence, the figures for `C=C1C[C@](OC)([C@H](O)C(=O)N[C@H]2OCO[C@H]3[C@@H]2O[C@H](C[C@H](O)CCC/C=C/C=C/C=C/C(=O)N[C@@H](CCCNC(=N)N)C(=O)O)C(C)(C)[C@@H]3OC)O[C@H](C)[C@@H]1C` [ONNAMIDE A] were 2 ng/mL (≈ 2.52 nM) and 3.6 ng/mL (≈ 4.53 nM).
For `C=C1C[C@](OC)([C@H](O)C(=O)N[C@H]2OCO[C@H]3[C@@H]2O[C@H](C[C@H](O)CCCCC/C=C/C=C/C(=O)N[C@@H](CCCNC(=N)N)C(=O)O)C(C)(C)[C@@H]3OC)O[C@H](C)[C@@H]1C` [6,7-DIHYDRO-ONNAMIDE A] the same measures were 4.6 ng/mL (≈ 5.78 nM) and 5 ng/mL (≈ 6.28 nM).
Taken in the same sequence, the figures for `C=C1C[C@](OC)([C@H](O)C(=O)N[C@H]2OCO[C@H]3[C@@H]2O[C@H](CC(=O)CCC/C=C/C=C/C=C/C(=O)N[C@@H](CCCNC(=N)N)C(=O)O)C(C)(C)[C@@H]3OC)O[C@H](C)[C@@H]1C` [11-OXO-ONNAMIDE A] were 9.2 ng/mL (≈ 11.6 nM) and 13 ng/mL (≈ 16.4 nM).
As to `C=C1C[C@](OC)([C@H](O)C(=O)N[C@H]2OCO[C@H]3[C@@H]2O[C@H](CC(=O)CCCCC/C=C/C=C/C(=O)N[C@@H](CCCNC(=N)N)C(=O)O)C(C)(C)[C@@H]3OC)O[C@H](C)[C@@H]1C` [6,7-DIHYDRO-11-OXO-ONNAMIDE A], the IC50 in the assay with L1210 was found to be 16 ng/mL (≈ 20.2 nM); in the assay with KB it was 23 ng/mL (≈ 29 nM).
